According to patent publication US20130296347A1, “Compositions and Methods for Prophylaxis and Treatment of Addictions” (Omeros Corporation, priority 2007, published 2013):
“And” between values parts separate entries of the source, which are not always exact repeats. Equal values may be shown once. “Also recorded” adds a separate entry of the source.

How the values were obtained:
msP rats [1] = assay: Acute voluntary ethanol intake, free choice 10% alcohol 24 hours a day; format: in vivo, rat; conditions: for ethanol intake, drug alone (post-hoc): low dose given at 12 hours and 1 hour before access, partner drugs at doses of the examples; for ethanol intake in a pilot study: low dose: fluoxetine 3.0, mirtazapine 5.0, topiramate 30.0, levetiracetam 100.0, gabapentin 60.0 mg/kg OS, ondansetron 1.0, antalarmin […] IP
Procedure: MsP rats were first trained to drink 10% (w/v) alcohol for 24 hours a day (free choice between water and ethanol). […] Before starting the treatment, rats were trained to gavage administration procedures for three days, during which they received vehicle (distilled water). […] Drinking experiments started at the beginning of the dark cycle. Alcohol, water and food intakes were monitored at 2, 8 and 24 hours after ethanol was made available.
Before starting the treatment, rats were trained to gavage and IP administration procedures for three days. Experiment was conducted in a between subject design (n=22). […] Drinking experiments started at the beginning of the dark cycle. Alcohol, water and food intakes were monitored at 2, 8 and 24 hours after ethanol was made available.
The drinking experiments were conducted at the beginning of the dark cycle, and alcohol, water and food intakes were monitored at 2, 8 and 24 hours after ethanol was made available.
(§1) MsP rats were first trained to drink 10% (w/v) alcohol for 24 hours a day (free choice between water and ethanol). […] Rats treated with drug vehicles served as a control. Before starting the treatment, rats were trained to gavage administration for three days, during which they received drugs vehicle (distilled water). […] Drinking experiments started at the beginning of the dark cycle. Alcohol, water, and food intakes were monitored at 2, 8 and 24 hours after ethanol was made available.
as §1, with “water” for “water,”
as §1, with “water” for “water,”
as §1, with “water” for “water,”
as §1, with “water” for “water,”
as §1, with “water” for “water,”

Long Evans rats = assay: Yohimbine-induced reinstatement of nicotine seeking; format: in vivo, rat; conditions: yohimbine 2.0 mg/kg/ml; p<0.001
Procedure: Stress and anxiety are major factors in resuming nicotine use in former abstinent users. […] Reinstatement experiments and relative drug treatments were performed every third day. Between reinstatements, extinction baseline was re-established.

heavy tobacco smokers [2] = assay: Pilot clinical study in heavy tobacco smokers; format: in vivo, human; parameters: overall smoking reduction / inhibition of smoking prior to dropping out: concentration or dose not given beside the values; conditions: for Percent inhibition of smoking: baseline data expressed as 100%: T = 0, smoking before entering the treatment; for Percent inhibition of smoking: baseline data expressed as 100% / Percent inhibition of smoking: individual patients; for craving score (visual analogic craving scale): over treatment
Procedure: Data were recorded for two months, during which patients were seen by the physician every other week. Patients were instructed to record in a personal logbook the number of cigarettes per day and the time of the day smoking occurred. At the end of the study, the logbooks were returned to the clinical personnel who analyzed the data. […] During the first month of treatment, every two weeks, ACTH and cortisol levels were also monitored to evaluate HPA activation before and during treatment.

heavy tobacco smokers [3] = assay: Pilot clinical study in heavy tobacco smokers; format: in vivo, human
msP rats [4] = assay: Cue-induced reinstatement of alcohol seeking; format: in vivo, rat; conditions: naltrexone 0.25 and 1.0 mg/kg 1 hour before test
Procedure: Cue-induced reinstatement of alcohol-seeking behaviour experimental procedures consisted of three phases: (1) conditioning phase; (2) extinction phase; and (3) reinstatement phase, as described below.
For the conditioning phase, at the completion of the fading procedure (see above), in 30 min daily sessions, animals were trained to discriminate between 10% alcohol and water. Beginning with self-administration training at the 10% alcohol concentration, discriminative stimuli (SD) predictive of alcohol versus water availability were presented during the alcohol and water self-administration sessions, respectively. The discriminative stimulus for alcohol consisted of the odour of an orange extract (S^+) whereas water availability (i.e. no reward) was signalled by an anise extract (S^−). The olfactory stimuli were generated by depositing six to eight drops of the respective extract into the bedding of the operant chamber. In addition, each lever-press resulting in delivery of alcohol was paired with illumination of the chamber's house light for 5 sec (CS^+). The corresponding cue during water sessions was a 5 second tone (70 dB) (CS). Concurrently with the presentation of these stimuli, a 5 sec. time-out period was in effect, during which responses were recorded but not reinforced. The olfactory stimuli serving as S^+ or S^− for alcohol availability were introduced one minute before extension of the levers and remained present throughout the 30-min. sessions. The bedding of the chamber was changed and bedding trays were cleaned between sessions. During the first three days of the conditioning phase, the rats were given alcohol sessions only. Subsequently, alcohol and water sessions were conducted in random order across training days, with the constraint that all rats received a total of 10 alcohol and 10 water sessions.
For the extinction phase, after the last conditioning day, rats were subjected to 30-min extinction sessions for 15 consecutive days. During this phase, sessions began by extension of the levers without presentation of the SD. […]

msP rats [5] = assay: Yohimbine-induced (stress) reinstatement of alcohol seeking; conditions: naltrexone 0.25 and 1.0 mg/kg IP 1 hour before test
Source text: Stress-induced reinstatement of alcohol-seeking experimental procedures consisted of three phases: (1) training phase; (2) extinction phase; and (3) reinstatement phase, as described below.
For the training phase, after completion of the fading procedure, msP rats were trained to self-administer 10% (v/v) alcohol for 15 days in 30-min daily sessions under a FR1 schedule of reinforcement. During the infusion, a stimulus house light was turned on for 5 s (time out; TO).
For the extinction phase, after the last alcohol self-administration session, animals were subjected to 30-min extinction sessions for 15 consecutive days.
The day after the last extinction session, rats were subjected to the reinstatement test.
Animals received all drug treatments according to a counterbalance Latin square design. A 3-day interval, during which animals were subjected to extinction sessions, was allowed between drug tests.

[6] = test system: Marchigian Sardinian alcohol-preferring (msP) rats; assay: Subchronic (7 days) voluntary ethanol intake, 10% alcohol available 24 hours/day; format: in vivo, rat; conditions: 7 days; naltrexone […] IP alone or with pioglitazone 10.0 or 30.0 mg/kg OS
Procedure: (§2) At the beginning of the experiments, msP rats were allowed free choice between water and 10% (v/v) alcohol 24 h/day for at least 15 days. The fluids were offered in graduated drinking tubes equipped with metallic drinking spouts. The position (to the right or left) of alcohol and water drinking tubes was changed daily to avoid the development of side preference. Water and food were available ad libitum, while alcohol access was either restricted to 2 hours/day (Examples 1 and 2) or was available 24 hours/day (Examples 3 and 4). Alcohol, water and food intakes were measured.
(§3) […]. Before starting the treatment, rats were trained to gavage administration procedures for three days, during which they received vehicle (distilled water).
Alcohol, water and food intakes were monitored at 2, 8 and 24 hours. Fluids and food intakes were monitored for three additional days after the end of the drug treatment period.
[…]. According to a between-subject design, four groups of msP rats (N=9/group) were prepared as described in Example 3. […] […]. Alcohol, water and food intakes were monitored at 2, 8 and 24 hours. Fluids and food intakes were monitored for three additional days after the end of the drug treatment period.

[7] = test system: Marchigian Sardinian alcohol-preferring (msP) rats; assay: Acute voluntary ethanol intake, alcohol access restricted to 2 hours/day; format: in vivo, rat
Procedure: as §2
. After acquisition of a stable baseline of ethanol intake (6-8 g/kg bw; daily), alcohol access was restricted to 2 hours a day at the beginning of the dark phase. Water and food were freely available.
as §3
Treatments were carried out at intervals of at least three days. […] Drinking experiments were conducted right at the beginning of the dark cycle. Alcohol, water and food intakes were monitored at 30, 60, 90 and 120 minutes after ethanol was made available.
The msP rats (n=8) were prepared for the study as described in Example 1. After acquisition of a stable baseline of ethanol intake, alcohol access was restricted to 2 hours a day at the beginning of the dark phase. Water and food were freely available. […]. The experiment was conducted using a within subject counterbalanced Latine square design where each animal received all drug doses.
These experiments were conducted at the beginning of the dark cycle and alcohol, and water and food intakes were monitored at 30, 60, 90 and 120 minutes after ethanol was made available.

alcoholic patients = assay: Observational study of alcohol abuse in human patients; format: in vivo
Source text: ACT)+psychotherapy. […] Patients were instructed to record in a personal logbook the number of drinks per day and the time of the day drinks occurred. At the end of the study, the logbooks were returned to the clinical personnel who analyzed the data. […] In addition, biochemical parameters to ascertain alcohol detoxification and to measure recovery of physiological functions (i.e., hepatic function) were monitored monthly. Hematological parameters measured included: mean corpuscular volume (MCV); gamma-GT; aspartate aminotransferase (AST); alanine aminotransferase (ALT); and carbohydrate-deficient transferring (CDT). MCV and CDT are biomarkers for ethanol consumption, and GGT, ALT and AST are biomarkers for hepatic functionality. Data were analyzed by analysis of variance followed by Newman-Keuls post hoc tests when appropriate.

CD mice [8] = conditions: morphine 30 mg/kg IP twice a day
Procedure: Morphine hydrochloride was purchased from Salars (Milano, Italy). Morphine (30 mg/kg) was dissolved in NaCl 9% and was injected intraperitoneally (IP) twice a day at the indicated doses in a volume of 0.2 ml per mice.

CD mice [9] = assay: Tail-flick test, morphine-induced analgesic tolerance; format: in vivo, mouse; conditions: morphine 30 mg/kg IP twice a day
Procedure: All procedures were conducted in adherence to the European Community Council Directive for Care and Use of Laboratory Animals.
Mice were divided into 6 groups. Group 1 (n=8) received drug vehicles (veh/veh). […] Animals were treated twice daily (between 9:00 and 10:00 a.m. and 9:00 and 10:00 p.m.).
Morphine hydrochloride was purchased from Salars (Milano, Italy). Morphine (30 mg/kg) was dissolved in NaCl […] and was injected intraperitoneally (IP) twice a day at the indicated doses in a volume of 0.2 ml per mice. […] It was dissolved in distilled water and was administered per o.s. at the doses of 10 mg/kg and 30 mg/kg in a volume of 0.6 ml per mice.
Two different tests were used to monitor analgesic responses. The tail-flick test was performed 45 min after the morning injection of morphine, and the tail-immersion test was performed 45 min after the evening injection of morphine.
For the tail-flick test, each mouse was gently restrained in a soft tissue pocket, and the tail (1 cm from the tip) was exposed to a hot light beam. Latency for tail-flick was measured with a 6 seconds cut-off time. For the tail-immersion test, each mouse was restrained in a soft tissue pocket, and the distal half of the tail dipped into a water bath set at 52 C°. Latency for removing the tail from the hot water was measured with a 10 seconds cut-off time.

[10] = pioglitazone 30 mg/day or naltrexone 50 mg/day + psychotherapy

## NCC1(CC(=O)O)CCCCC1 [gabapentin]
msP rats [1]; pioglitazone 10 mg/kg OS
  ethanol intake, drug alone (post-hoc): did not significantly modify
msP rats [1]
  ethanol intake in a pilot study: did not reduce ethanol intake

## COC(=O)[C@@H]1[C@H]2C[C@H]3c4[nH]c5ccccc5c4CCN3C[C@@H]2CC[C@@H]1O [yohimbine]
Long Evans rats
  reinstatement of responding compared to extinction: significant reinstatement

## CNCCC(Oc1ccc(C(F)(F)F)cc1)c1ccccc1 (centres unmarked) [fluoxetine]
msP rats [1]; pioglitazone 10 mg/kg OS
  ethanol intake, drug alone (post-hoc): did not significantly modify
msP rats [1]
  ethanol intake in a pilot study: did not reduce ethanol intake

## CC1(C)O[C@@H]2[C@@H](CO[C@@]3(COS(N)(=O)=O)OC(C)(C)O[C@@H]23)O1 [topiramate]
msP rats [1]; pioglitazone 10 mg/kg OS
  ethanol intake, drug alone (post-hoc): did not significantly modify
msP rats [1]
  ethanol intake in a pilot study: did not reduce ethanol intake
msP rats [1]; pioglitazone 10 mg/kg OS, topiramate 30.0 mg/kg OS, p<0.05
  ethanol intake at 2 hours, drug alone: significant reduction

## CN1CCN2c3ncccc3Cc3ccccc3C2C1 (centres unmarked) [mirtazapine]
msP rats [1]; pioglitazone 10 mg/kg OS
  ethanol intake, drug alone (post-hoc): did not significantly modify
msP rats [1]
  ethanol intake in a pilot study: did not reduce ethanol intake

## CCCCN(CC)c1nc(C)nc2c1c(C)c(C)n2-c1c(C)cc(C)cc1C [antalarmin]
msP rats [1]; pioglitazone 10 mg/kg OS
  ethanol intake, drug alone (post-hoc): did not significantly modify
msP rats [1]
  ethanol intake in a pilot study: modestly reduced

## CC(NC(C)(C)C)C(=O)c1cccc(Cl)c1 (centres unmarked) [bupropione]
Heavy tobacco smokers [2]
  Percent inhibition of smoking: baseline data expressed as 100%: 100%
  craving score (visual analogic craving scale): less effective
Heavy tobacco smokers [2]; T = 2 weeks of treatment, Pio 15-30 mg/daily, Var 0.5 to 2.0 mg/day
  Percent inhibition of smoking: 100%
Heavy tobacco smokers [2]; T = 4 weeks, listed as Bup
  Percent inhibition of smoking: 20% and 18% and 15%
Heavy tobacco smokers [2]; T = 6 weeks, listed as Bup
  Percent inhibition of smoking: 28% and 20% and 21%
Heavy tobacco smokers [2]; T = 8 weeks
  Percent inhibition of smoking: 34%
Heavy tobacco smokers [2]; bupropione patient who dropped out after four weeks
  inhibition of smoking prior to dropping out: 20%
Heavy tobacco smokers [3]; T = 10 weeks, individual patients, listed as Bup
  Percent inhibition of smoking: 40% and 45%
Heavy tobacco smokers [3]; two bupropione patients after 10 weeks of drug administration
  smoking reduced: about 40%

## CC[C@@H](C(N)=O)N1CCCC1=O [levetiracetam]
msP rats [1]; pioglitazone 10 mg/kg OS
  ethanol intake, drug alone (post-hoc): did not significantly modify
msP rats [1]
  ethanol intake in a pilot study: did not reduce ethanol intake

## O=C(Nc1ccccc1)c1cc([N+](=O)[O-])ccc1Cl [GW9662]
msP rats [1]; GW9662 5 μg/rat ICV alone
  ethanol intake: did not significantly affect
msP rats [1]; GW9662 1.0 and 5.0 mg/kg IP with pioglitazone 30 mg/kg OS
  pioglitazone-induced reduction of ethanol intake: blocked the effect of pioglitazone in a dose related manner
msP rats [1]; GW9662 alone, 1.0 and 5.0 mg/kg IP
  ethanol drinking: did not modify

## O=C1CC[C@@]2(O)[C@H]3Cc4ccc(O)c5c4[C@@]2(CCN3CC2CC2)[C@H]1O5 [naltrexone]
msP rats [4]
  cue-induced (conditioned) reinstatement of alcohol-seeking: significantly reduced
msP rats [5]
  yohimbine-induced reinstatement of alcohol seeking: did not significantly reduce; also recorded: not modified
[6]
  ethanol intake at 8 and 24 hours: not at 8 and 24 hours
  ethanol intake at 2 hours: significantly reduced
  voluntary ethanol intake, overall: significantly reduced
[7]; naltrexone […] IP alone or with pioglitazone 10 mg/kg OS
  ethanol intake at 120 minutes: did not show significant effects
[7]; naltrexone […] IP alone or with pioglitazone 10.0 or 30.0 mg/kg OS
  ethanol intake at 30, 60, and 90 minutes: significantly reduced
Alcoholic patients; 2-month treatment
  hepatic parameters (GGT, ALT, AST): ameliorated
Alcoholic patients; T = 1.2
  Depression Scale M.A.D.R.S (mean score values): 18
Alcoholic patients; T = 1.3
  Depression Scale M.A.D.R.S (mean score values): 16
Alcoholic patients; T = 1.4
  Depression Scale M.A.D.R.S (mean score values): 17
Alcoholic patients; T = 2.1
  Depression Scale M.A.D.R.S (mean score values): 17
Alcoholic patients; T = 2.2
  Depression Scale M.A.D.R.S (mean score values): 15
Alcoholic patients; first two weeks of treatment, P<0.05
  effect on daily drinks, comparison of drugs: more effective than pioglitazone
Alcoholic patients; [10]
  daily ethanol intake (number of daily drinks): significantly reduced
  number of abstinence days: increased
Alcoholic patients; post hoc, P<0.001
  OCDS versus controls: statistically significant difference
  all five blood biomarkers versus controls (psychotherapy alone): statistical difference

## c1cnc2cc3c(cc2n1)[C@@H]1CNC[C@H]3C1 [varenicline]
Heavy tobacco smokers [2]
  Percent inhibition of smoking: baseline data expressed as 100%: 100%
  craving score (visual analogic craving scale): highest reduction
Heavy tobacco smokers [2]; over treatment weeks
  STAI anxiety score: significantly reduced
Heavy tobacco smokers [2]; p<0.05
  weekly smoked cigarettes compared to bupropione (post hoc): significant difference
Heavy tobacco smokers [2]; pioglitazone 4 patients, varenicline 3 patients
  subjects reaching complete abstinence: one
Heavy tobacco smokers [2]; three participants receiving varenicline
  overall smoking reduction: 95%

## Cc1nccn1CC1CCc2c(c3ccccc3n2C)C1=O (centres unmarked) [ondansetron]
msP rats [1]; pioglitazone 10 mg/kg OS
  ethanol intake, drug alone (post-hoc): did not significantly modify
msP rats [1]
  ethanol intake in a pilot study: did not reduce ethanol intake

## CN1CC[C@]23c4c5ccc(O)c4O[C@H]2[C@@H](O)C=C[C@H]3[C@H]1C5 [morphine]
CD mice [8]
  tail-immersion analgesic effect on test day 9: marginally significant
CD mice [8]; p<0.01
  tail-immersion latency on day 1, 3, 5, and 7: significantly increased
CD mice [9]
  time to tail-flick on test days 7 and 9: non significant difference from controls
CD mice [9]; p<0.01
  time to tail-flick on day 1, 3 and 5: significantly increased
